The record followed here is patent US8735620B2, “Processes for preparing (E)-styrylbenzylsulfone compounds and uses thereof for treating proliferative disorders” (priority 2008, dated 2014).

Molecules are shown by their SMILES. Like-named read-outs stand apart in the source and are kept apart here.

Data set [1] deals with DU145 (human prostate tumor cell line). The data set is described as follows: Cytotoxicity assay (trypan blue exclusion, 96 h), DU145. The format is cell-based. The note with it: DU145, 96 h treatment; read-out: DU145 IC50.
Text: (§2) Tissue Culture and Reagents: Paclitaxel was purchased from Sigma. Cell lines were purchased from ATCC. Cell lines were routinely grown in DMEM or RPM1 (CellGro) supplemented with 10% fetal bovine serum (Atlas) and 1 unit/mL penicillin-streptomycin (Gibco).
Data set [2] has as its system BT20, DU145, H157 and DLD1 cell lines. The data set is described as follows: In vitro cytotoxicity, four human tumor cell lines (SAR discussion). The format is cell-based. The note with it: for activity in cell-killing assays: at the highest concentration (20 μM) tested. The procedure:
A number of tumor cell lines were tested using a dose response end point assay system. The cells were grown in either DMEM or RPMI supplemented with 10% fetal bovine serum and 1 unit/mL Penicillin-Streptomycin solution. The tumor cells were plated into 6 well dishes at a cell density of 1.0×10^5 cells/mL/well and compounds were added 24 h later at various concentrations. Cell counts were determined from duplicate wells after 96 h of treatment. The total number of viable cells was determined by trypan blue exclusion.
Following the synthesis of this group of compounds, their in vitro cytotoxicity was assessed using four different human tumor cell lines derived from human breast (BT20), prostate (DU145), lung (H157) and colorectal (DLD1) cancers. […] In a majority of the compounds described here, a methoxy group was kept constant at the 4th position on the aromatic ring of the benzyl moiety.

Data set [3] concerns DLD1 (human colorectal tumor cell line). The data set is described as follows: Cytotoxicity assay (trypan blue exclusion, 96 h), DLD1. The format is cell-based. The following applies: DLD1, 96 h treatment; read-out: DLD1 IC50.
Text: as §2
The test system of data set [4] is H157 (human lung tumor cell line). The data set is described as follows: Cytotoxicity assay (trypan blue exclusion, 96 h), H157. Format: cell-based. The following applies: H157, 96 h treatment; read-out: H157 IC50.
Data set [5] relates to BT20 (human breast tumor cell line). Kind of data set: Cytotoxicity assay (trypan blue exclusion, 96 h), BT20. The format is cell-based. The note with it: BT20, 96 h treatment.
The subject of a further data set is MES-SA. Kind of data set: Tumor cell killing, MES-SA (parental uterine sarcoma). The note with it: Homo sapiens; parental cell line MES-SA, 96 h dose response; read-out: IC50. The format is cell-based, human. The procedure: (§1) A. 6aa inhibits the growth of parental (MES-SA) and Paclitaxel resistant (MES-SA/DX5) cell lines with equal efficiency. The parental uterine sarcoma cells and the MDR positive (MES-SA/DX5) cells were plated into 6 well dishes and treated with various concentrations of 6aa and Paclitaxel for 96 h. The number of viable cells from duplicate plates was determined by trypan blue exclusion. B. Soft Agar Assays. MIA-PaCa-2 cells (1.0×10^5) were plated in soft agar containing various concentrations of each compound in triplicates. After three weeks of growth, the plates were stained for 48 h using 0.05% nitroblue tetrazolium solution. Representative plates were photographed using an Olympus stereoscope mounted with a Sony digital camera system (DKC5000, Sony Inc). Tissue Culture and Reagents: […] Cell lines were purchased from ATCC. Cell lines were routinely grown in DMEM or RPM1 (CellGro) supplemented with 10% fetal bovine serum (Atlas) and 1 unit/mL penicillin-streptomycin (Gibco). A number of tumor cell lines were tested using a dose response end point assay system. The cells were grown in either DMEM or RPMI supplemented with 10% fetal bovine serum and 1 unit/mL Penicillin-Streptomycin solution. […] Cell counts were determined from duplicate wells after 96 h of treatment. The total number of viable cells was determined by trypan blue exclusion.

A further data set relates to MES-SA/DX5. Kind of data set: Tumor cell killing, MES-SA/DX5 (multidrug resistant subline). The format is cell-based, human. The procedure: as §1
The next data set has as its system MIA-PaCa-2 cells. Kind of data set: Soft agar colony formation, MIA-PaCa-2. Format: cell-based, human. The note with it: positive control, FIG. 1b. The procedure:
FIG. 1 Anti-tumor effects of (E)-2,4,6-Trimethoxystyryl-3-Hydroxy-4-Methoxybenzyl Sulfone (6aa). A. 6aa inhibits the growth of parental (MES-SA) and Paclitaxel resistant (MES-SA/DX5) cell lines with equal efficiency. The parental uterine sarcoma cells and the MDR positive (MES-SA/DX5) cells were plated into 6 well dishes and treated with various concentrations of 6aa and Paclitaxel for 96 h. The number of viable cells from duplicate plates was determined by trypan blue exclusion. B. Soft Agar Assays. MIA-PaCa-2 cells (1.0×10^5) were plated in soft agar containing various concentrations of each compound in triplicates. After three weeks of growth, the plates were stained for 48 h using 0.05% nitroblue tetrazolium solution. Representative plates were photographed using an Olympus stereoscope mounted with a Sony digital camera system (DKC5000, Sony Inc).
The soft agar plates were prepared as described by Cosenza, et al (Cosenza, S. C. et al. In Cell Growth, Differentiation and Senescence, Studzinski, G. P., Ed.; Oxford University Press: 1999, 161-176.). Briefly, Noble bottom agar (0.8%) was plated onto 60 mm tissue culture plates. Exponentially growing MIA-PaCa-2 cells (1.0×10^5) were mixed with growth medium with various concentrations of each compound and mixed with Noble agar to a final concentration of 0.4%. Each concentration was plated in triplicate. The top agar was allowed to solidify and the plates were then incubated at 5% CO2 at 37° C. for 3 weeks. The plates were then stained with 0.05% nitroblue tetrazolium (NBT) solution and representative plates were photographed using an Olympus stereoscope mounted with a Sony digital camera system (DKC5000, Sony Inc).

The term IC50 denotes the midpoint of a concentration-inhibition curve. For `COc1ccc(CS(=O)(=O)/C=C/c2cc(C)cc(C)c2)cc1` [6k, (E)-3,5-Dimethylstyryl-4-Methoxybenzyl sulfone], the IC50 in data set [1], in data set [3], in data set [4] and in data set [5] was over 20 µM throughout. Besides, in data set [2], the “cytotoxic activity, SAR statement” value is “low level of cytotoxicity”.
In the case of `COc1ccc(CS(=O)(=O)/C=C/c2c(OC)cc(O)cc2OC)cc1` [6u, (E)-2,6-Dimethoxy-4-hydroxystyryl-4-Methoxybenzyl sulfone], the 50% inhibitory concentration (IC50) in data set [1], in data set [3], in data set [4] and in data set [5] was over 20 µM in each case. For the same molecule, the “cytotoxic activity, SAR statement” value in data set [2] (four human tumor cell lines) is given as “either a reduced level or total loss of activity”.
Turning to `COc1ccc(CS(=O)(=O)/C=C/c2ccccc2OC)cc1` [6f, (E)-2-Methoxystyryl-4-Methoxybenzyl sulfone], the IC50 in data set [1] turned out to be 3.5 µM; in data set [3], 7.5 µM; in data set [4], 5 µM; in data set [5] it was 5 µM. For the same molecule, the “cytotoxic activity, SAR statement” value in data set [2] (four human tumor cell lines) is given as “partially recovered the lost activity”.
With `COc1ccc(CS(=O)(=O)/C=C/c2ccc(N)cc2)cc1` [6e, (E)-4-Aminostyryl-4-Methoxybenzyl sulfone], the IC50 in data set [1], in data set [3], in data set [4] and in data set [5] was over 20 µM in each case. Further, the “cytotoxic activity, SAR statement” value in data set [2] is listed as “gradually decreased the activity”.
For `COc1ccc(CS(=O)(=O)/C=C/c2ccc(Cl)cc2)cc1` [6c, (E)-4-Chlorostyryl-4-Methoxybenzyl sulfone], the IC50 in data set [1] worked out at 2.5 µM; in data set [3] it was 3 µM; in data set [4] it was 3.5 µM; in data set [5], 2 µM. Moreover, the “cytotoxic activity, SAR statement” value in data set [2] is “gradually decreased the activity”.
In the same order, the values of `COc1ccc(CS(=O)(=O)/C=C/c2c(C)cccc2C)cc1` [6l, (E)-2,6-Dimethylstyryl-4-Methoxybenzyl sulfone] are over 20 µM, over 20 µM, over 20 µM, over 20 µM and “low level of cytotoxicity”.
`COc1ccc(CS(=O)(=O)/C=C/c2cc(OC)c(OC)c(OC)c2)cc1` [6t, (E)-3,4,5-Trimethoxystyryl-4-Methoxybenzyl sulfone]: the IC50 in data set [1], in data set [3], in data set [4] and in data set [5] was over 20 µM throughout. Further, the “activity in cell-killing assays” value in data set [2] is “totally inactive”.
As for `COc1ccc(CS(=O)(=O)/C=C/c2ccc(F)cc2)cc1` [6b, (E)-4-Fluorostyryl-4-Methoxybenzyl sulfone], the IC50 in data set [1] was determined as 1.25 µM; in data set [3] it was 2 µM; in data set [4] it was 2.5 µM; in data set [5], 1.5 µM. Also, in data set [2], the “cytotoxic activity, SAR statement” value is listed as “moderate cytotoxic activity”.
On to `COc1ccc(CS(=O)(=O)/C=C/c2ccc(OC)c(OC)c2OC)cc1` [6r, (E)-2,3,4-Trimethoxystyryl-4-Methoxybenzyl sulfone], for which the IC50 in data set [1], in data set [3], in data set [4] and in data set [5] was over 20 µM each time. Further, the “activity in cell-killing assays” value in data set [2] was “totally inactive”.
As for `CC(=O)O[C@H]1C(=O)[C@@]2(C)[C@H]([C@H](OC(=O)c3ccccc3)[C@]3(O)C[C@H](OC(=O)[C@H](O)[C@@H](NC(=O)c4ccccc4)c4ccccc4)C(C)=C1C3(C)C)[C@]1(OC(C)=O)CO[C@@H]1C[C@@H]2O` [Paclitaxel, reference compound], the IC50 in the data set with MES-SA stood at 0.004 µM; in the data set with MES-SA/DX5 (Homo sapiens, MDR positive subline MES-SA/DX5, 96 h dose response, read-out: IC50) it was 0.75 µM. The “fold resistance of MDR positive subline versus parental cell line” value with MES-SA/DX5 (MES-SA/DX5 vs MES-SA) is “greater than 100 fold”. The “potency in soft agar relative to 6aa and 6ab” value in the data set on MIA-PaCa-2 cells is reported as “slightly lower potency”.
